Source: paper PMC7859440, “Transporter Gene Regulation in Sandwich Cultured Human Hepatocytes Through the Activation of Constitutive Androstane Receptor (CAR) or Aryl Hydrocarbon Receptor (AhR)” (Frontiers in Pharmacology, 2021)
Where “and” joins values, the source holds several entries; their conditions need not be identical. Identical values can stand only once.

Legend:
[1] = tested on: UGT1A1; experiment: gene induction in sandwich-cultured human hepatocytes (qRT-PCR)
Protocol: (§1) Cryopreserved human hepatocytes were quickly thawed at 37°C and then transferred into hepatocyte thawing medium. Cells were pelleted at 100 × g for 10 min and then resuspended in hepatocyte complete plating medium (CP medium). The cells were then seeded at 65,000 cells per well in 96-well collagen I coated plates. After cell attachment (4–6 h post-seeding), CP medium was exchanged for ice-cold complete incubation medium (HI medium) containing BD Matrigel™ at the concentration of 0.25 mg/ml. The cells were then incubated overnight at 37°C in a humidified 5% CO2 incubator. […] Cell death or loss of adhesion of hepatocytes during or after treatment were examined by microscopy.
(§2) A RNeasy 96 Kit (Qiagen) was used to extract the total cellular RNA from sandwich cultured hepatocytes in 96-well plates following the manufacturer's instructions. A total volume of 200 μL RNA was obtained via the column elution provided in the RNeasy kit. Five μL RNA extraction was mixed with TaqMan® Fast Virus 1-Step Master Mix (Life Technologies) in a final reaction volume of 20 μL and qRT-PCR was achieved using a QuantStudio 6 Flex Real-Time PCR System (Life Technologies), following the manufacturer's instructions. β-actin mRNA expression in the SCHH was used as a house-keeping gene for the normalization of target gene expressions. The mRNA levels in SCHH treated with AhR or CAR activators were expressed by a fold change, compared to the gene expressions without the treatment. The 2^−ΔΔCt method ([Livak and Schmittgen, 2001]) was used to analyze the relative changes in gene expression, where the Ct is the cycle number at which the fluorescence in the reaction crosses the preset arbitrary threshold; the ΔCt represents the difference between the Ct target and reference and the ΔΔCt is the difference between the ΔCt of the test and the ΔCt of the preassigned control. Gene expression for each condition is expressed as a fold-change of mean ± standard deviation (SD) from three independent donors (each performed in triplicate). All primer and probe sets were purchased from Life Technologies (Table 2). When concentration-dependent induction observed, the in vitro induction mRNA data were fitted using the sigmoid 3-parameter equation in GraphPad Prism (La Jolla, CA) to estimate the in vitro concentration of inducer that produced half the maximum induction values (EC50).

[2] = tested on: SLC22A7 (OAT2); experiment: as above; format: cell-based; conditions: SCHH, 72 h; TCDD 50 nM, OP 50 µM, CITCO 5 µM, PB 1,000 µM (highest conc.); mean ± SD, three donors
[3] = tested on: SLC29A1 (ENT1); experiment: as above; format: cell-based; conditions: SCHH, 72 h; TCDD 50 nM, OP 50 µM, CITCO 5 µM, PB 1,000 µM (highest conc.); mean ± SD, three donors
[4] = tested on: SLC51B (OSTβ); experiment: as above; format: cell-based; conditions: SCHH, 72 h; TCDD 50 nM, OP 50 µM, CITCO 5 µM, PB 1,000 µM (highest conc.); mean ± SD, three donors
[5] = tested on: CYP1A1; experiment: in vitro
Protocol: as §1
as §2, with “When concentration-dependent induction observed, the in vitro induction mRNA data were fitted using the sigmoid 3-parameter equation in GraphPad Prism (La Jolla, CA) to estimate the in vitro concentration of inducer that produced half the maximum induction values (EC50).” left out

[6] = tested on: SLC22A5 (OCTN2); experiment: gene induction in sandwich-cultured human hepatocytes (qRT-PCR); format: cell-based; conditions: SCHH, 72 h; TCDD 50 nM, OP 50 µM, CITCO 5 µM, PB 1,000 µM (highest conc.); mean ± SD, three donors
[7] = tested on: SLC51A (OSTα); experiment: as above; format: cell-based; conditions: SCHH, 72 h; TCDD 50 nM, OP 50 µM, CITCO 5 µM, PB 1,000 µM (highest conc.); mean ± SD, three donors
[8] = tested on: SLC10A1 (NTCP); experiment: as above; format: cell-based; conditions: SCHH
Protocol: A RNeasy 96 Kit (Qiagen) was used to extract the total cellular RNA from sandwich cultured hepatocytes in 96-well plates following the manufacturer's instructions. A total volume of 200 μL RNA was obtained via the column elution provided in the RNeasy kit. Five μL RNA extraction was mixed with TaqMan® Fast Virus 1-Step Master Mix (Life Technologies) in a final reaction volume of 20 μL and qRT-PCR was achieved using a QuantStudio 6 Flex Real-Time PCR System (Life Technologies), following the manufacturer's instructions. β-actin mRNA expression in the SCHH was used as a house-keeping gene for the normalization of target gene expressions. The mRNA levels in SCHH treated with AhR or CAR activators were expressed by a fold change, compared to the gene expressions without the treatment. The 2^−ΔΔCt method ([Livak and Schmittgen, 2001]) was used to analyze the relative changes in gene expression, where the Ct is the cycle number at which the fluorescence in the reaction crosses the preset arbitrary threshold; the ΔCt represents the difference between the Ct target and reference and the ΔΔCt is the difference between the ΔCt of the test and the ΔCt of the preassigned control. Gene expression for each condition is expressed as a fold-change of mean ± standard deviation (SD) from three independent donors (each performed in triplicate). […] When concentration-dependent induction observed, the in vitro induction mRNA data were fitted using the sigmoid 3-parameter equation in GraphPad Prism (La Jolla, CA) to estimate the in vitro concentration of inducer that produced half the maximum induction values (EC50).

[9] = tested on: SLC16A1 (MCT1); experiment: as above; format: cell-based; conditions: SCHH, 72 h; TCDD 50 nM, OP 50 µM, CITCO 5 µM, PB 1,000 µM (highest conc.); mean ± SD, three donors
[10] = tested on: CYP2C9; conditions: SCHH, 72 h; TCDD 50 nM, OP 50 µM, CITCO 5 µM, PB 1,000 µM (highest conc.); mean ± SD, three donors
Protocol: as §1
A RNeasy 96 Kit (Qiagen) was used to extract the total cellular RNA from sandwich cultured hepatocytes in 96-well plates following the manufacturer's instructions. […] The 2^−ΔΔCt method ([Livak and Schmittgen, 2001]) was used to analyze the relative changes in gene expression, where the Ct is the cycle number at which the fluorescence in the reaction crosses the preset arbitrary threshold; the ΔCt represents the difference between the Ct target and reference and the ΔΔCt is the difference between the ΔCt of the test and the ΔCt of the preassigned control. Gene expression for each condition is expressed as a fold-change of mean ± standard deviation (SD) from three independent donors (each performed in triplicate). […]

[11] = tested on: SLC29A2 (ENT2); experiment: gene induction in sandwich-cultured human hepatocytes (qRT-PCR); format: cell-based; conditions: SCHH, 72 h; TCDD 50 nM, OP 50 µM, CITCO 5 µM, PB 1,000 µM (highest conc.); mean ± SD, three donors
[12] = tested on: SLC22A9 (OAT7); experiment: as above; format: cell-based; conditions: SCHH, 72 h; TCDD 50 nM, OP 50 µM, CITCO 5 µM, PB 1,000 µM (highest conc.); mean ± SD, three donors
[13] = tested on: SLC22A1 (OCT1); experiment: as above; format: cell-based; conditions: SCHH, 72 h; TCDD 50 nM, OP 50 µM, CITCO 5 µM, PB 1,000 µM (highest conc.); mean ± SD, three donors
Protocol: as §1, §2

[14] = tested on: SLCO4C1 (OATP4C1); experiment: as above; format: cell-based; conditions: SCHH, 72 h; TCDD 50 nM, OP 50 µM, CITCO 5 µM, PB 1,000 µM (highest conc.); mean ± SD, three donors
Protocol: as §1, §2

[15] = tested on: ABCB1 (MDR1); experiment: as above; format: cell-based; conditions: SCHH, 72 h; TCDD 50 nM, OP 50 µM, CITCO 5 µM, PB 1,000 µM (highest conc.); mean ± SD, three donors
Protocol: as §1, §2

[16] = tested on: ABCC3 (MRP3); experiment: as above; format: cell-based; conditions: SCHH, 72 h; TCDD 50 nM, OP 50 µM, CITCO 5 µM, PB 1,000 µM (highest conc.); mean ± SD, three donors
Protocol: as §1, §2

[17] = tested on: SLCO1B3 (OATP1B3); experiment: as above; format: cell-based; conditions: SCHH, 72 h; TCDD 50 nM, OP 50 µM, CITCO 5 µM, PB 1,000 µM (highest conc.); mean ± SD, three donors
Protocol: as §1, §2

[18] = tested on: ABCC5 (MRP5); experiment: as above; format: cell-based; conditions: SCHH, 72 h; TCDD 50 nM, OP 50 µM, CITCO 5 µM, PB 1,000 µM (highest conc.); mean ± SD, three donors
Protocol: as §1, §2

[19] = tested on: SLCO2B1 (OATP2B1); experiment: as above; format: cell-based; conditions: SCHH, 72 h; TCDD 50 nM, OP 50 µM, CITCO 5 µM, PB 1,000 µM (highest conc.); mean ± SD, three donors
Protocol: as §1, §2

[20] = tested on: ABCC6 (MRP6); experiment: as above; format: cell-based; conditions: SCHH, 72 h; TCDD 50 nM, OP 50 µM, CITCO 5 µM, PB 1,000 µM (highest conc.); mean ± SD, three donors
Protocol: as §1, §2

[21] = tested on: SLC47A1 (MATE1); experiment: as above; format: cell-based; conditions: SCHH, 72 h; TCDD 50 nM, OP 50 µM, CITCO 5 µM, PB 1,000 µM (highest conc.); mean ± SD, three donors
Protocol: as §1, §2

[22] = tested on: SLCO1B1 (OATP1B1); experiment: as above; format: cell-based; conditions: SCHH, 72 h; TCDD 50 nM, OP 50 µM, CITCO 5 µM, PB 1,000 µM (highest conc.); mean ± SD, three donors
Protocol: as §1, §2

[23] = tested on: ABCC4 (MRP4); experiment: as above; format: cell-based; conditions: SCHH, 72 h; TCDD 50 nM, OP 50 µM, CITCO 5 µM, PB 1,000 µM (highest conc.); mean ± SD, three donors
Protocol: as §1, §2

[24] = tested on: ABCB11 (BSEP); experiment: as above; format: cell-based; conditions: SCHH, 72 h; TCDD 50 nM, OP 50 µM, CITCO 5 µM, PB 1,000 µM (highest conc.); mean ± SD, three donors
Protocol: as §1, §2

[25] = tested on: ABCC2 (MRP2); experiment: as above; format: cell-based; conditions: SCHH, 72 h; TCDD 50 nM, OP 50 µM, CITCO 5 µM, PB 1,000 µM (highest conc.); mean ± SD, three donors
Protocol: as §1, §2

[26] = tested on: CYP3A4; experiment: in vitro; conditions: greater than 50% reduction, in only two donors among three lots of hepatocytes
Protocol: as §1
as §2, with “The 2^−ΔΔCt method ([Livak and Schmittgen, 2001]) was used to analyze the relative changes in gene expression, where the Ct is the cycle number at which the fluorescence in the reaction crosses the preset arbitrary threshold; the ΔCt represents the difference between the Ct target and reference and the ΔΔCt is the difference between the ΔCt of the test and the ΔCt of the preassigned control.” left out

[27] = tested on: SLC15A1 (PEPT1); experiment: gene induction in sandwich-cultured human hepatocytes (qRT-PCR); format: cell-based; conditions: SCHH, 72 h; TCDD 50 nM, OP 50 µM, CITCO 5 µM, PB 1,000 µM (highest conc.); mean ± SD, three donors
[28] = tested on: SLC51B; design: method as in Niu et al., 2019; conditions: rifampin (PXR ligand), human and monkey hepatocytes; ref Niu et al., 2019; cited from earlier work
[29] = SCHH, 72 h, TCDD 50 nM, OP 50 µM, CITCO 5 µM, PB 1,000 µM (highest conc.), mean ± SD, three donors

Compound: Clc1cc2c(cc1Cl)Oc1cc(Cl)c(Cl)cc1O2 [TCDD, 2,3,7,8-tetrachlorodibenzo-p-dioxin]
- UGT1A1 mRNA fold change [1, 29]: 4.3 fold and 4.3 ± 1.5 fold
- EC50 at 72 h ([1]; human): 1.56 ± 0.4 nM
- SLC22A7 (OAT2) mRNA fold change [2]: 0.8 ± 0.2 fold
- SLC29A1 (ENT1) mRNA fold change [3]: 0.9 ± 0.4 fold
- SLC51B (OSTβ) mRNA fold change [4]: 1.6 ± 0.3 fold
- CYP1A1 mRNA fold change [5, 29]: 38 fold and 38.1 ± 19.2 fold
- EC50 at 72 h ([5]; human): 0.5 ± 0.11 nM
- SLC22A5 (OCTN2) mRNA fold change [6]: 1.1 ± 0.2 fold
- SLC51A (OSTα) mRNA fold change [7]: 1.5 ± 0.3 fold
- SLC10A1 (NTCP) mRNA fold change ([8]; 72 h, TCDD 50 nM, OP 50 µM, CITCO 5 µM, PB 1,000 µM (highest conc.), mean ± SD, three donors): 0.5 ± 0.2 fold
- SLC10A1 gene suppression (reduction) ([8]; 3 days, highest concentration treated): about 2 fold
- SLC16A1 (MCT1) mRNA fold change [9]: 1.0 ± 0.2 fold
- CYP2C9 mRNA fold change [10]: 0.8 ± 0.3 fold
- SLC29A2 (ENT2) mRNA fold change [11]: 1.0 ± 0.2 fold
- SLC22A9 (OAT7) mRNA fold change [12]: 0.9 ± 0.2 fold
- SLC22A1 (OCT1) mRNA fold change [13]: 0.7 ± 0.3 fold
- SLCO4C1 (OATP4C1) mRNA fold change [14]: 0.8 ± 0.3 fold
- ABCB1 (MDR1) mRNA fold change [15]: 1.0 ± 0.3 fold
- ABCC3 (MRP3) mRNA fold change [16]: 1.0 ± 0.2 fold
- SLCO1B3 (OATP1B3) mRNA fold change [17]: 0.8 ± 0.5 fold
- ABCC5 (MRP5) mRNA fold change [18]: 0.9 ± 0.3 fold
- SLCO2B1 (OATP2B1) mRNA fold change [19]: 1.1 ± 0.4 fold
- ABCC6 (MRP6) mRNA fold change [20]: 0.8 ± 0.2 fold
- SLC47A1 (MATE1) mRNA fold change [21]: 0.9 ± 0.3 fold
- SLCO1B1 (OATP1B1) mRNA fold change [22]: 1.0 ± 0.4 fold
- ABCC4 (MRP4) mRNA fold change [23]: 0.7 ± 0.2 fold
- ABCB11 (BSEP) mRNA fold change [24]: 0.7 ± 0.3 fold
- ABCC2 (MRP2) mRNA fold change [25]: 0.9 ± 0.3 fold
- CYP3A4 mRNA fold change in single donors [26]: < 0.5 fold
- SLC15A1 (PEPT1) mRNA fold change [27]: 1.2 ± 0.3 fold

Compound: CO[C@H]1/C=C/O[C@@]2(C)Oc3c(C)c(O)c4c(O)c(c(/C=N/N5CCN(C)CC5)c(O)c4c3C2=O)NC(=O)/C(C)=C\C=C\[C@H](C)[C@H](O)[C@@H](C)[C@@H](O)[C@@H](C)[C@H](OC(C)=O)[C@@H]1C [rifampin]
- SLC51B induction [28]: greater than 10 fold
